Converted amounts (≈) assume the structure as drawn. Like-named read-outs stand apart in the source and are kept apart here.
Columns and labels:
[1] = system: Aspergillus fumigatus strains; experiment: Example N: MIC and MFC (CLSI) against Aspergillus fumigatus; format: cell-based; conditions: for MIC50 / MIC: Aspergillus fumigatus; for MIC: read-out: MIC 100%; for MFC: range over Aspergillus fumigatus strains, in 48 hr
Method: (§1) The objective of this study was to determine the antifungal activity of eight experimental compounds against a representative panel of fungal isolates, including Candida albicans, C. glabrata, Cryptococcus neoformans, Trichophyton rubrum, Aspergillus fumigatus, and Rhizopus spp. Antifungal activity was measured by minimum inhibitory concentration (MIC) and minimum fungicidal concentration (MFC).
(§2) Three recent clinical strains of each species, taken from the culture collection at the Center for Medical Mycology, Case Western University, were tested.
(§3) Compounds in powder form were dissolved in DMSO. Serial dilutions of each compound were then prepared in RPMI-1640 in a range of […].
(§4) MIC testing was performed according to the CLSI M27-A3 and M38-A2 standards for the susceptibility testing of yeasts and filamentous fungi, respectively (1, 2). Test isolates were subcultured from frozen slants onto potato dextrose agar plates (Trichophyton rubrum was subcultured onto oatmeal plates for conidia production) and checked for purity. Inocula were then prepared in RPMI-1640 (YNB for Cryptococcus) to a concentration of 0.5-2.5×10^3 colony-forming units (CFU)/ml or 0.4-5×10^4 conidia/ml for yeast and filamentous fungi, respectively.
(§5) MFC determinations were performed according to the modifications previously described by Canton et al. and Ghannoum and Isham. (3, 4) Specifically, the total contents of each clear well from the MIC assay were subcultured onto potato dextrose agar. To avoid antifungal carryover, the aliquots were allowed to soak into the agar and then were streaked for isolation once dry, thus removing the cells from the drug source.

[2] = system: Trichophyton rubrum strains; experiment: Example N: MIC and MFC (CLSI) against Trichophyton rubrum; format: cell-based; conditions: for MIC: read-out: MIC 100%, Range, incubated for 96 hrs, three clinical strains; for MFC: three clinical strains
Method: as §1, §2, §3, §4, §5

Rhizopus strains = experiment: Example N: MIC and MFC (CLSI) against Rhizopus; format: cell-based, Rhizopus spp.; conditions: for MIC50 / MIC: Rhizopus; for MIC: read-out: MIC 100%
Method: as §1, §2, §3, §4, §5

Candida glabrata strains = experiment: Example N: MIC and MFC (CLSI) against Candida glabrata; format: cell-based; conditions: Nakaseomyces glabratus; for MIC: read-out: MIC 100%; for MFC: range over Candida glabrata strains, in 48 hr
Method: as §1, §2, §3, §4, §5

[3] = system: Cryptococcus neoformans (serotype A); experiment: Example L: Cryptococcus neoformans (serotype A) growth inhibition; format: cell-based; conditions: Cryptococcus neoformans; for MIC: read-out: MIC, uM (concentration for maximum - 99% of inhibition)
Method: Cryptococcus neoformans (serotype A) were plated in 96 well plates with 144 μl/well of 5×10e5 CFU/ml in YPD growth medium. Diluted compounds were then added to each well with concentration ranged from 0.05 to 10 μM as final concentration in duplicates. The plates were inoculated at 30° C. Two readings of OD at 600 nm were measured after 18 hr and […] treatments.
C12-imidazol had relative weak activity against Cryptococcus serotype A at low concentration. Data plotted was based on 26 hour reading because 18 hour reading was too low.
• 1. Pick a single colony of Cryptococcus from the Sabouraud Dextrose agar plate using the inoculum loop and inoculate into a 125 ml flask containing 25 ml of YPD growth medium • 2. Incubate at 30° C. with shaking at 220 rpm for 24 hours with loosen lid to allow air in and facilitates growth. • 3. Examine an aliquot of the culture under a microscope for yeast cell morphology and lack of bacterial contamination. • 4. Dilute the overnight culture with YPD medium at 1:100 dilution and count the number of cells as 8×10^6 cfu/ml. • 5. Make a final concentration of cells suspension at 5×10^5 cfu/ml in YPD medium after the stock culture had been stored at 4° C. for 3 days. • 6. Plate 144 μl/well of 5×10^5 cfu/ml cell suspension on 96-well plates. Part-II: Cryptococcus Growth Inhibition Testing with Compounds • 1. From 10 mM DMSO stock solutions, make serial dilutions of compounds to 0.0013, 0.0025, 0.0125, 0.025, 0.05, 0.125 and 0.25 mM solution • 2. Add 6 ul each of diluted compound solutions per well in duplicates. The final concentrations were 0, 0.05, 0.1, 0.5, 1.0, 2.0, 5.0 and 10 micromolar. • 3. Incubated all plates at 30° C. overnight with 175 rpm shaking. • 4. Read absorbance at OD600 after 18 and 26 hours for each plate. • 5. Calculated the % inhibition and IC50 of each compound against the untreated cell.

Candida albicans strains = experiment: Example N: MIC and MFC (CLSI) against Candida albicans; format: cell-based; conditions: Candida albicans, three clinical strains; for MIC: read-out: MIC 100%, Range
Method: as §1, §2, §3, §4, §5

THP-1 cells = experiment: Example C: compound screen, viable THP-1 cell count after 5 hours +/- LPS; format: cell-based, Human
Text: Background: THP-1 is a human acute myeloid leukemia (AML) cell line that can be induced into a macrophage-like cell with vitamin-D3 (vit-D3). In the macrophage, LPS (lipopolysaccharide; endotoxin) stimulation of toll-like receptor 4 (TLR-4) leads to NF-κB activation and secretion of inflammatory cytokines but also the priming of programmed death pathways through RIP and Caspase 8. The balance of this complex regulatory network is dependent on highly specific kinases, enzymes that require ATP. Disruption of either cytosolic pH or ATP availability/energy level uncouples this control network and the can macrophage shift away from production of inflammatory cytokines towards a programmed death event, which has the net effect of limiting inflammatory damage.

[4] = read-out: IC50, uM (concentration for 50% of inhibition), OD of 26 hour reading, 30° C., XLfit
[5] = OD of 26 hour reading, 30° C., XLfit

Row | Structure (SMILES) | MIC50 ([1]; 24 h) [µg/mL] | MIC ([1]; 24 h) [µg/mL] | MIC50 ([1]; 48 h) [µg/mL] | MIC ([1]; 48 h) [µg/mL] | MIC [2] [µg/mL] | MFC [2] [µg/mL] | MIC50 (Rhizopus strains; 24 h) [µg/mL] | MIC (Rhizopus strains; 24 h) [µg/mL] | MIC50 (Rhizopus strains; 48 h) [µg/mL] | MIC (Rhizopus strains; 48 h) [µg/mL] | MIC50 (Candida glabrata strains; 24 h) [µg/mL] | MIC (Candida glabrata strains; 24 h) [µg/mL] | MIC50 (Candida glabrata strains; 48 h) [µg/mL] | MIC (Candida glabrata strains; 48 h) [µg/mL] | MFC (Candida glabrata strains) [µg/mL] | IC50 [3, 4] [µM] | MIC [3, 5] [µM] | MIC (Candida albicans strains; 24 hr) [µg/mL] | MIC (Candida albicans strains; 48 hr) [µg/mL] | MFC (Candida albicans strains; 48 hr) [µg/mL] | further results
1 | CCCCCCOCCCCCCCCNc1ccnc2cc(Cl)ccc12 [AW, 7-Chloro-N-[8-(hexyloxy)octyl]quinolin-4-amine] | 2 to 4 (≈ 5.12 to 10.2 µM) | 4 to 8 (≈ 10.2 to 20.5 µM) | 8 (≈ 20.5 µM) | 16 (≈ 40.9 µM) | 1 to 16 (≈ 2.56 to 40.9 µM) | 8 to 16 (≈ 20.5 to 40.9 µM) | 4 (≈ 10.2 µM) | 4 to 8 (≈ 10.2 to 20.5 µM) | 4 to 8 (≈ 10.2 to 20.5 µM) | 8 (≈ 20.5 µM) | 4 (≈ 10.2 µM) | 8 (≈ 20.5 µM) | 8 (≈ 20.5 µM) | 8 to 16 (≈ 20.5 to 40.9 µM) | 16 to 32 (≈ 40.9 to 81.8 µM) | 1.74 | 13.8 (≈ 5.38 µg/mL) | 4 to 8 (≈ 10.2 to 20.5 µM) | 8 (≈ 20.5 µM) | 8 to 32 (≈ 20.5 to 81.8 µM) | 
2 | c1ccc(Oc2cccc(CNc3ncnc4ccccc34)c2)cc1 [BM, N-(3-Phenoxybenzyl)quinazolin-4-amine] |  |  |  |  |  |  |  |  |  |  |  |  |  |  |  | 0.69 | 17.5 (≈ 5.73 µg/mL) |  |  |  | Reduction in viable THP-1 cell count (percent change) from 0 hours, Mean ± SE (THP-1 cells; Compound (0.1 μM), No LPS): −3.96 ± 0.82%; Reduction in viable THP-1 cell count (percent change) from 0 hours, Mean ± SE (THP-1 cells; Compound (0.1 μM), Plus LPS): −25.80 ± 3.26%; Reduction in viable THP-1 cell count (percent change) from 0 hours, Mean ± SE (THP-1 cells; Compound (1.0 μM), No LPS): −4.18 ± 2.46%; Reduction in viable THP-1 cell count (percent change) from 0 hours, Mean ± SE (THP-1 cells; Compound (1.0 μM), Plus LPS): −39.17 ± 2.18%; ability to inactivate pro-inflammatory THP-1 cells, in words (relative to benchmark AC) (THP-1 cells; LPS-treated THP-1 cells): higher activity than the active benchmark compound AC; IC50 ([3]; Macrophage, direct inhibition, values of the earlier study (Table 25), read-out: IC50 value (μM) for inhibition of fungal growth, No macrophages): 0.69 µM
3 | CCCCCCOCCCCCCCCCCNc1ccnc2ccccc12 [Compound AL, N-[10-(Hexyloxy)decyl]quinolin-4-amine] | 2 (≈ 5.2 µM) | 2 (≈ 5.2 µM) | 2 to 4 (≈ 5.2 to 10.4 µM) | 4 (≈ 10.4 µM) | 1 to 4 (≈ 2.6 to 10.4 µM) | 2 to 4 (≈ 5.2 to 10.4 µM) | 4 (≈ 10.4 µM) | 4 (≈ 10.4 µM) | 4 to 8 (≈ 10.4 to 20.8 µM) | 8 (≈ 20.8 µM) | 2 (≈ 5.2 µM) | 2 (≈ 5.2 µM) | 2 to 4 (≈ 5.2 to 10.4 µM) | 4 (≈ 10.4 µM) | 4 (≈ 10.4 µM) | 3.01 | 10.5 (≈ 4.03 µg/mL) | 2 to 4 (≈ 5.2 to 10.4 µM) | 2 to 4 (≈ 5.2 to 10.4 µM) | 4 to 8 (≈ 10.4 to 20.8 µM) | cidal activity (MFC within 4 dilutions of the MIC), in words ([1]; 3 strains): cidal against one of the A. fumigatus strains (MRL 28397); MFC [1]: 4 to 32 µg/mL (≈ 10.4 to 83.2 µM)
4 | CCCCCCOCCCCCCCCNc1ccnc2c(Cl)cccc12 [Compound AX, 8-Chloro-N-[8-(hexyloxy)octyl]quinolin-4-amine] | 0.12 to 0.25 (≈ 0.307 to 0.639 µM) | 0.5 to 1 (≈ 1.28 to 2.56 µM) | 1 to 4 (≈ 2.56 to 10.2 µM) | 4 to 8 (≈ 10.2 to 20.5 µM) | 0.25 to 8 (≈ 0.639 to 20.5 µM) | 2 to 8 (≈ 5.12 to 20.5 µM) | 0.5 to 1 (≈ 1.28 to 2.56 µM) | 1 to 2 (≈ 2.56 to 5.12 µM) | 1 (≈ 2.56 µM) | 1 to 2 (≈ 2.56 to 5.12 µM) | 2 (≈ 5.12 µM) | 8 (≈ 20.5 µM) | 8 (≈ 20.5 µM) | 8 (≈ 20.5 µM) | 8 to 64 (≈ 20.5 to 164 µM) | 0.91 | 17.3 (≈ 6.76 µg/mL) | 0.5 to 4 (≈ 1.28 to 10.2 µM) | 2 to 4 (≈ 5.12 to 10.2 µM) | 4 to 32 (≈ 10.2 to 81.8 µM) | MFC [1]: > 64 µg/mL; MFC (Rhizopus strains; range over Rhizopus strains, in 48 hr): > 64 µg/mL

— patent US20250034139A1, “AMINE COMPOUNDS HAVING ANTI-INFLAMMATORY, ANTIFUNGAL, ANTIPARASITIC, AND ANTICANCER ACTIVITY” (PHARMA CINQ, LLC, priority 2013, published 2025)
